Test results taken from patent US12522584B2, “3,4-dihydroisoquinoline compound and use thereof” (CSPC Zhongqi Pharmaceutical Technology (Shijiazhuang) Co., …, priority 2020, dated 2026).
Marks after values point to notes of the source that are not given here.

How the values were obtained:
PRMT5 = PRMT5 (Homo sapiens (Human), UniProt O14744); test: radiometric assay for PRMT5 based on FlashPlate technology; format: biochemical; conditions: PRMT5 5 nM, [3H]-SAM, 60 min at 25° C.; read-out: Enzymology (IC50)
Sequence of PRMT5 (O14744 whole entry): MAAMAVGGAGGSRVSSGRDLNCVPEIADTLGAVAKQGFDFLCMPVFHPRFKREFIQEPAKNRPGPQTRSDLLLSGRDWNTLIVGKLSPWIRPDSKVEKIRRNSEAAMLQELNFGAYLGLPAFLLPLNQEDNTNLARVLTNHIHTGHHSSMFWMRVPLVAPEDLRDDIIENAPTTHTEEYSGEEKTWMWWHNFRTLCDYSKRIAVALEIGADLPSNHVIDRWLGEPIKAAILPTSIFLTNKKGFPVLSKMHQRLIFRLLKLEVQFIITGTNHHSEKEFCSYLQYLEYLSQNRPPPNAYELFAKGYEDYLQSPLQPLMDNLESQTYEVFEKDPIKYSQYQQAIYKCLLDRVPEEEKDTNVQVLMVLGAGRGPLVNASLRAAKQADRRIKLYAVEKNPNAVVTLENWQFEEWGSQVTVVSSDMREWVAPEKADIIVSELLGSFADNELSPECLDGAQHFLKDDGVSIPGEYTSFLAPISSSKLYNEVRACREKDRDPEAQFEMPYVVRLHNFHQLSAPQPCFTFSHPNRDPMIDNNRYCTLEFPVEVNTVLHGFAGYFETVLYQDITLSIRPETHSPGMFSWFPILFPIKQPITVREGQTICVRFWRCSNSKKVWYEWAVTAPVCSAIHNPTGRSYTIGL
Sequence of PRMT5 (Q9BQA1 whole entry partner): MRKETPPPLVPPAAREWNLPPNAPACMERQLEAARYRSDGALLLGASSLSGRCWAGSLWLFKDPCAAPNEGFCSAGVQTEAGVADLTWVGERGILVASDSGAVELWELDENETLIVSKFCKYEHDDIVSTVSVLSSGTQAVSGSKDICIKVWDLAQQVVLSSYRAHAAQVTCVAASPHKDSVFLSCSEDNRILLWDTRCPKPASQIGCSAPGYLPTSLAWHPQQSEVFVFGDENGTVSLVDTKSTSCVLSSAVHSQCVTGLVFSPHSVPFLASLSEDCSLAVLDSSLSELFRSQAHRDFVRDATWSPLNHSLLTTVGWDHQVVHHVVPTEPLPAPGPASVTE
Method: The radiometric assay for PRMT5 based on FlashPlate technology was adopted to determine IC50 of the test compound.
After dissolved in dimethyl sulfoxide respectively, the test compounds were added into an Echo Qualified 384-well plate and diluted to the desired concentrations. The diluted test compounds were transferred from the Echo Qualified 384-well plate to a 384-well reaction plate using an Echo 550 instrument, and dimethyl sulfoxide was transferred into both the control and blank wells. PRMT5 was added to 1×reaction buffer (including 10 mM Tris-HCl; pH 8.0; 0.01% Tween-20; 1 mM DTT) to form a 1.67×enzyme solution (at an enzyme concentration of 5 nM). A polypeptide substrate and [3H]-SAM were added to 1× reaction buffer to form a 2.5× substrate solution (the terminal concentrations of the substrates were 100 nM and 250 nM, respectively). At a volume of 15 μL/well, the 1.67× enzyme solution was added into wells of the 384-well reaction plate. In case of the blank wells, the enzyme solution was replaced with 15 μL of the 1× reaction buffer. The reaction plate was centrifuged at 1000 rpm for 1 min, and incubated at room temperature for 15 min. To each well of the 384-well reaction plate, 10 μL of the 2.5× substrate solution was added, centrifuged at 1000 rpm for 1 min, and reacted at 25° C. for 60 min. To each well of the 384-well reaction plate, 5 μL of reaction stop solution (which was […] cold SAM solution) was added to terminate the reaction. From each well of the test plate, 25 μL was measured and transferred to Flashplate and left at room temperature for 1 h. Thereafter, the Flashplate was washed with 0.1% Tween-20 solution three times. Readings were taken with MicroBeta 2. The data was converted into the inhibition rate data. Inhibition rate=(conversion ratecontrol well−conversion ratecompound well)/(conversion ratecontrol well−conversion rateblank well)×100%. The IC50curves were fitted using XLFit5.4.0.8. The fitting equation was as follows:Y=Bottom+(Top-Bottom)/(1+(IC50/X)^HillSlope).

[1] = system: human acute monocytic leukemia cell line MV4-11; test: MV4-11 MTT cell growth inhibition; format: cell-based; conditions: 144 h, MV4-11 cells, MTT on Day 6
Method: The complete medium required for the culture of human acute monocytic leukemia cell line MV4-11 (Shanghai Cell Bank) for experiment was IMDM (Cat NO. 12440-053, gibco) supplemented with 10% FBS (Cat NO. SA311.02, cellmax). The cells were cultured in an incubator at 37° C. with 5% CO2. The experiment reagents included dimethyl sulfoxide (Tianjin Kemiou Chemical Reagent Co., Ltd.) and MTT (THIAZOLYL BLUE TETRAZOLIUM BROMIDE, CAS. NO. 298-93-1, VWR). The control compound GSK3326595 for experiment was homemade or commercially available. The test compound was encapsulated and stored at 4° C.
Dimethyl sulfoxide was used as a vehicle to fully dissolve the test compound, thereby formulating a stock solution at a concentration of 5×10^−2 mol/L. The stock solution was stored at −20° C. With the complete medium as diluent, the test compound was subjected to gradient dilution to afford dilutions at different concentrations for standby application. In a 96-well culture plate, the suspension of the human acute monocytic leukemia cell line MV4-11 in the complete medium, at a volume of 100 μL/well (2×10^3 cells/well), was added. Afterwards, the dilutions at different concentrations of the corresponding test compounds (100 μL/well) were added, respectively. Each of the test compounds was provided with 8 concentration gradients and three replicates were used for each concentration. The plates were incubated in an incubator at 37° C. with 5% CO2. On Day 6, the plate was treated with MTT (20 μL/well) and incubated for 4 h in an incubator at 37° C. with 5% CO2. The supernatant was discarded. Dimethyl sulfoxide (150 μL/well) was added and mixed well by shaking. The OD value at 550 nm was measured with a microplate reader. Wells containing only cell suspensions without the test compounds were control wells, and wells containing only complete media were blank wells. The cell growth inhibition rate was calculated according to the following equation: Inhibition rate=(OD valuecontrol well−OD valuesample well)/(OD valuecontrol well−OD valueblank well)×100%. According to the inhibition rate at each concentration, the half maximal inhibitory concentration IC50 value was calculated using the SPSS software. 2. Enzymatic Experiment

[2] = Pharmacokinetic experiment in SD rats; conditions: male, rat, plasma, po, 25 mg/kg
Method: (§1) SD rats (male, 180 g to 200 g, Beijing Vital River Laboratory Animal Technology Co., Ltd.) were administered with the test compounds (solvent: 2% DMSO+98% (0.2 g/mL) hydroxypropyl-β-cyclodextrin, dosing volume: 5 mL/kg) by gavage. Blood was collected from the orbits of the rats at different points in time (0.25, 0.5, 1, 2, 4, 8, 24 h) after administration. The collected whole blood was anticoagulated with heparin sodium and centrifuged at 3000 g to obtain rat plasma samples, and methanol was added thereto to precipitate proteins. The drug concentration in rat plasma after administration was determined by HIPLC-MS/MS method. A drug concentration-time curve was plotted and the pharmacokinetic parameters were calculated. Pharmacokinetic behaviors of the compounds after administration in rats were described by means of the parameter estimation of non-compartmental model based on statistical moment theory.

MV4-11 xenografts = test: In vivo efficacy in MV4-11 subcutaneous xenograft model; conditions: for d9 Tumor Volume (mm^3) / Body Weight Change (%) / Tumor Weight / Tumor weight inhibition rate (%) / RTV (d9): 100 mg/kg BID; for d9 Tumor Volume (mm^3): 9th day after administration; for Body Weight Change (%): 11 consecutive days, NOD-SCID mice; for Tumor Weight / Tumor weight inhibition rate (%): 11 days; for Tumor Weight: tumors dissected at end; for Tumor weight inhibition rate (%): versus vehicle group; for d0 Tumor Volume (mm^3): d0, before grouping for administration (baseline); for RTV (d9): relative tumor volume = d9/d0 tumor volume
Method: Experimental female NOD-SCID mice, SPF grade, 4 to 5 weeks, were purchased from Beijing Vital River Laboratory Animal Technology Co., Ltd. The mice were intraperitoneally injected with cyclophosphamide at a dose of 100 mg/kg one day before cell inoculation. The human acute monocytic leukemia cell line MV4-11 (1×10^7/0.1 ml/mouse) was subcutaneously inoculated into forelimb axilla of mice to establish a subcutaneous xenograft model. When the tumor volumes reached about 110 mm^3 (10 days after inoculation), the mice were equally grouped according to the tumor volume, with 5 mice in each group, i.e., vehicle group (2% DMSO+98% (0.2 g/mL) hydroxypropyl-β-cyclodextrin) and test drug groups. For the test drug groups, the dose of administration was 100 mg/kg, the dosing volume was 10 mL/kg, the dosing frequency was BID, the tumor diameters were measured twice per week, and the data was recorded. The mice were administered for 11 consecutive days. When the experiment ended, the tumors were dissected and weighed.

in vivo = conditions: male, SD, rat, po, 25 mg/kg
Method: as §1

SMILES | IC50 (PRMT5) [nM] | IC50 [1] [nM] | AUC(0-t) [2] [ng·h/mL] | Cmax [2] [ng/mL] | Tmax [2] [min] | d9 Tumor Volume (mm^3) (MV4-11 xenografts) | Tumor Weight (MV4-11 xenografts) [g] | Tumor weight inhibition rate (%) (MV4-11 xenografts) | d0 Tumor Volume (mm^3) (MV4-11 xenografts) | RTV (d9) (MV4-11 xenografts) | further results
CON=C(C(=O)NC1CC2(C1)CC(Nc1cc(C(=O)NC[C@H](O)CN3CCc4ccccc4C3)ncn1)C2)C1CC1 (stereo partly drawn) [PR-7, (S)-6-((6-(2-cyclopropyl-2-(methoxyimino)acetamido)spiro[3.3]heptan-2-yl)amino)-N-(3-(3,4-dihydroisoquinolin-2(1H)-yl)-2-hydroxypropyl)pyrimidine-4-carboxamide] | 14 | 1.04 | 2540 | 1120 | 40 | 60.2 ± 20.1***## mm^3 | 0.0710 ± 0.0353 | 90.2 | 165.6 ± 28.1 | 0.4 ± 0.1 | Body Weight Change (%) (MV4-11 xenografts): −6.9%
CON=C(C(=O)N1CC2(CC(Nc3cc(C(=O)NC[C@H](O)CN4CCc5ccccc5C4)ncn3)C2)C1)C1CC1 [PR-12, (S)-6-((2-(2-cyclopropyl-2-(methoxyimino)acetyl)-2-azaspiro[3.3]heptan-6-yl)amino)-N-(3-(3,4-dihydroisoquinolin-2(1H)-yl)-2-hydroxypropyl)pyrimidine-4-carboxamide] | 2.7 | 0.691 | – | – | – | – | – | – | – | – | –
O=C(NC[C@H](O)CN1CCc2ccccc2C1)c1cc(NC2CCN(C(=O)C(=NO)C3CC3)CC2)ncn1 [PR-1, (S)-6-((1-(2-cyclopropyl-2-(hydroxyimino)acetyl)piperidin-4-yl)amino)-N-(3-(3,4-dihydroisoquinolin-2(1H)-yl)-2-hydroxypropyl)pyrimidine-4-carboxamide] | 13 | 5.02 | – | – | – | – | – | – | – | – | –
CC(=O)N1CCC(Nc2cc(C(=O)NC[C@H](O)CN3CCc4ccccc4C3)ncn2)CC1 [GSK3326595, reference compound] | – | – | – | – | – | 135 ± 43** mm^3 | 0.1124 ± 0.0764 | 84.5 | 165.2 ± 23.1 | 0.8 ± 0.2 | Body Weight Change (%) (MV4-11 xenografts): −6.8%
O=C(NC1CC2(C1)CC(Nc1cc(C(=O)NC[C@H](O)CN3CCc4ccccc4C3)ncn1)C2)C(=NO)C1CC1 (stereo partly drawn) [PR-6, (S)-6-((6-(2-cyclopropyl-2-(hydroxyimino)acetamido)spiro[3.3]heptan-2-yl)amino)-N-(3-(3,4-dihydroisoquinolin-2(1H)-yl)-2-hydroxypropyl)pyrimidine-4-carboxamide] | 16 | 1.9 | – | – | – | – | – | – | – | – | –
CON=C(C)C(=O)NC1CC2(C1)CC(Nc1cc(C(=O)NC[C@H](O)CN3CCc4ccccc4C3)ncn1)C2 (stereo partly drawn) [PR-9, (S)-N-(3-(3,4-dihydroisoquinolin-2(1H)-yl)-2-hydroxypropyl)-6-((6-(2-(methoxyimino)propanamido)spiro[3.3]heptan-2-yl)amino)pyrimidine-4-carboxamide] | 23 | 6.84 | 1270 | 875 | 30 | – | – | – | – | – | –

Further lines, with some results ahead:

IC50 (PRMT5) [nM] | IC50 [1] [nM] | AUC(0-t) [2] [ng·h/mL] | Cmax [2] [ng/mL] | Tmax [2] [min] | SMILES | d9 Tumor Volume (mm^3) (MV4-11 xenografts) | Tumor Weight (MV4-11 xenografts) [g] | Tumor weight inhibition rate (%) (MV4-11 xenografts) | d0 Tumor Volume (mm^3) (MV4-11 xenografts) | RTV (d9) (MV4-11 xenografts) | further results
16 | 1.53 | – | – | – | CON=C(C)C(=O)N1CCC2(CC1)CC(Nc1cc(C(=O)NC[C@H](O)CN3CCc4ccccc4C3)ncn1)C2 [PR-13, (S)-N-(3-(3,4-dihydroisoquinolin-2(1H)-yl)-2-hydroxypropyl)-6-((7-(2-(methoxyimino)propanoyl)-7-azaspiro[3.5]nonan-2-yl)amino)pyrimidine-4-carboxamide] | 69.7 ± 22.9***# mm^3 | 0.0679 ± 0.0225 | 90.6 | 165.4 ± 30.2 | 0.4 ± 0.1 | AUC(0-t) (in vivo): 840 ng·h/mL; Cmax (in vivo): 516 ng/mL; Tmax (in vivo): 50 min
– | 6.77 | – | – | – | CON=C(C)C(=O)N1CCC(Nc2cc(C(=O)NC[C@H](O)CN3CCc4ccccc4C3)ncn2)CC1 [PR-4, (S)-N-(3-(3,4-dihydroisoquinolin-2(1H)-yl)-2-hydroxypropyl)-6-((1-(2-(methoxyimino)propanoyl)piperidin-4-yl)amino)pyrimidine-4-carboxamide] | 55.7 ± 19.7***## mm^3 | 0.0648 ± 0.0267 | 91.1 | 165.3 ± 27.5 | 0.4 ± 0.1 | Body Weight Change (%) (MV4-11 xenografts): −6.1%
18 | 1.4 | – | – | – | O=C(NC[C@H](O)CN1CCc2ccccc2C1)c1cc(NC2CC3(C2)CN(C(=O)C(=NO)C2CC2)C3)ncn1 [PR-11, (S)-6-((2-(2-cyclopropyl-2-(hydroxyimino)acetyl)-2-azaspiro[3.3]heptan-6-yl)amino)-N-(3-(3,4-dihydroisoquinolin-2(1H)-yl)-2-hydroxypropyl)pyrimidine-4-carboxamide] | – | – | – | – | – | –
15 | 1.24 | – | – | – | CC(=NO)C(=O)N1CCC(Nc2cc(C(=O)NC[C@H](O)CN3CCc4ccccc4C3)ncn2)CC1 [PR-3, (S)-N-(3-(3,4-dihydroisoquinolin-2(1H)-yl)-2-hydroxypropyl)-6-((1-(2-(hydroxyimino)propanoyl)piperidin-4-yl)amino)pyrimidine-4-carboxamide] | – | – | – | – | – | –
23 | 1.44 | 674 | 660 | 20 | CON=C(CC(C)C)C(=O)N1CCC(Nc2cc(C(=O)NC[C@H](O)CN3CCc4ccccc4C3)ncn2)CC1 [PR-5, (S)-N-(3-(3,4-dihydroisoquinolin-2(1H)-yl)-2-hydroxypropyl)-6-((1-(2-(methoxyimino)-4-methylpentanoyl)piperidin-4-yl)amino)pyrimidine-4-carboxamide] | – | – | – | – | – | –
13 | – | 821 | 473 | 30 | CON=C(C(=O)N1CCC(Nc2cc(C(=O)NC[C@H](O)CN3CCc4ccccc4C3)ncn2)CC1)C1CC1 [PR-2, (S)-6-((1-(2-cyclopropyl-2-(methoxyimino)acetyl)piperidin-4-yl)amino)-N-(3-(3,4-dihydroisoquinolin-2(1H)-yl)-2-hydroxypropyl)pyrimidine-4-carboxamide] | – | – | – | – | – | –
19 | 0.98 | – | – | – | CC(=NO)C(=O)NC1CC2(C1)CC(Nc1cc(C(=O)NC[C@H](O)CN3CCc4ccccc4C3)ncn1)C2 (stereo partly drawn) [PR-8, (S)-N-(3-(3,4-dihydroisoquinolin-2(1H)-yl)-2-hydroxypropyl)-6-((6-(2-(hydroxyimino)propanamido)spiro[3.3]heptan-2-yl)amino)pyrimidine-4-carboxamide] | – | – | – | – | – | –
